Consider one molecule from CN115227715A, “一种用于治疗癌症的联合用药物和药物组合物” (priority 2021, dated 2022).

Experiment [1] relates to Cal-27 cells. The experiment in a line: CX-4945-induced vacuolization, phase-contrast microscopy (Experimental Example 1, Fig. 1a). The class given is cell-based. As to conditions: 20μM CX-4945, 12h.
For a further experiment, the system named is HSC-4 cells. The description is as above. The class given is cell-based. As to conditions: 20μM CX-4945, 12h.
The next experiment concerns HSC-3 cells. Described as above. Particulars: 40μM CX-4945, 12h. The class given is cell-based.
The test system of a further experiment is UM1 cells. Described as above. The class given is cell-based. As to conditions: 40μM CX-4945, 12h.
Experiment [2] relates to Cal-27 cells. The experiment in a line: Macropinocytosis marker Dextran AF488 uptake and organelle probe co-localization, confocal microscopy (Experimental Example 1, Fig. 1b-1e). The class given is cell-based.
Experiment [3] deals with cholangiocarcinoma cells (胆管癌细胞). As to conditions: cited from earlier work.
The subject of experiment [4] is non-small cell lung cancer cells (非小细胞肺癌细胞). Particulars: cited from earlier work.
For experiment [5], the system named is colorectal cancer cells (结直肠癌细胞). As to conditions: cited from earlier work.
The target in the next experiment is CK2 (Homo sapiens, UniProt P68400). Particulars: cited from earlier work.
Sequence of CK2 (P68400 whole entry): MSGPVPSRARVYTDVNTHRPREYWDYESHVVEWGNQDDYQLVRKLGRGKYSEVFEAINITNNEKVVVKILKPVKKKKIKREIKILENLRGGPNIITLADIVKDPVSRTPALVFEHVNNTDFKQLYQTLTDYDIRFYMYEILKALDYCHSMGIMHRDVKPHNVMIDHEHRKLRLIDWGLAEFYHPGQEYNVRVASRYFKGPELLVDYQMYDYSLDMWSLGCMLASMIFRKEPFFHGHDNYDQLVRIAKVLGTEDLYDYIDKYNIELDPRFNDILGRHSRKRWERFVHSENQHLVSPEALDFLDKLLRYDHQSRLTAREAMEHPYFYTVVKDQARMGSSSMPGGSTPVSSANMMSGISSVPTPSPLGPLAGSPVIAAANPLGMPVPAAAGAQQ

For the molecule `O=C(O)c1ccc2c(c1)nc(Nc1cccc(Cl)c1)c1ccncc12` [CX-4945], the vacuole formation entry in the experiment on Cal-27 cells [1], in the experiment with HSC-4 cells, with HSC-3 cells and with UM1 cells was “均产生了空泡” throughout. Besides, the “Dextran AF488 uptake in vacuoles” value with Cal-27 cells [2] (10μM CX-4945, 0.5mg/mL Dextran AF488, 12h) is reported as “大多数空泡内都摄入了大量的Dextran AF488,呈现Dextran AF488阳性”. In the experiment on Cal-27 cells [2] (10μM CX-4945, 0.5mg/mL Dextran AF488, ER-tracker, 12h), the “co-localization of Dextran AF488-positive vacuoles with endoplasmic reticulum” value was “不与内质网共定位”. For the same molecule, the “co-localization of Dextran AF488-positive vacuoles with lysosomes” value with Cal-27 cells [2] (10μM CX-4945, 0.5mg/mL Dextran AF488, Lyso-tracker, 12h) is on record as “有一部分与溶酶体共定位”. In addition, in the experiment with Cal-27 cells [2] (10μM CX-4945, 0.5mg/mL Dextran AF488, Mito-tracker, 12h), the “co-localization of Dextran AF488-positive vacuoles with mitochondria” value is given as “不与线粒体共定位”. Besides, the induction of macropinocytosis result in experiment [3], in experiment [4] and in experiment [5] was “可诱导巨胞饮的发生” each time. Further, the “selectivity as CK2 inhibitor” value on CK2 is “高度选择性”.
